We go through three molecules from publication PMC10253591, “A Non-Systemic Phosphodiesterase-5 Inhibitor Suppresses Colon Proliferation in Mice” (International Journal of Molecular Sciences, 2023).

Data set [1] has as its system LS-174T colon cancer cells. In words: Cell-based permeability assay: cellular cGMP (ELISA) in linaclotide-treated cells. Conditions: LS-174T cells; for EC50: Homo sapiens, LS174T, 1 µM linaclotide, 4 h, cGMP ELISA, read-out: EC50 for increasing cellular cGMP levels. On the procedure:
The cell-based permeability assays were performed using LS-174T colon cancer cells obtained from the American Type Culture Collection. Cells were treated with 1 µM linaclotide together with different PDE5i concentrations for 4 h, followed by processing of cell extracts for cellular cGMP measurement using cGMP ELISA kits according to the manufacturer instructions (Cayman Chemical, Ann Arbor, MI, USA). The calculated EC50 values are the concentration of compound required to increase cellular cGMP levels by 50% of maximum based on predictions determined by curve fitting in GraphPad Prism 9 (San Diego, CA, USA). To assess activation of cGMP signaling by immunoblotting, we used LS174T cells with inducible PKG2 expression that were described recently.
(An ELISA detects its analyte on a solid surface through an enzyme-linked reagent.)

Data set [2] in a line: LC-MS/MS measurement of compound in plasma and feces after oral gavage. Conditions: mice; for level in feces: feces collected between 2–4 h.
Data set [3] has as its system colon epithelium. In words: Cell proliferation in the colon epithelium (Ki67 flow cytometry, PCNA IHC). To be noted: mice, 9 mg/kg in drinking water; for Ki67+ cells, median: 8 days, proximal colon epithelium, flow cytometry, control 23%; for reduction of number of PCNA+ cells/crypt: distal colon, IHC. The data set is classed as in vivo. The text has this:
Mice were weighed daily, and after at least 5 days of continuous consumption they were sacrificed, and the colon was dissected and processed for quantitation of proliferation by flow cytometry (proximal region) and by IHC (distal region). For flow cytometry, the epithelium was enriched by isolating crypts as described previously, followed by ethanol fixation and staining with phycoerythrin-conjugated anti-mouse Ki-67 antibodies according to the manufacturer instructions (Biolegend, San Diego, CA, USA). Flow cytometry was carried out using a BD Accuri C6 flow cytometer, and data were analyzed using FCS Express 7 software (De Novo Software, Pasadena, CA, USA). Processing the distal colon tissues for histology and immunohistochemistry was carried out as previously described. Briefly, tissues were fixed with 10% formaldehyde, embedded in paraffin blocks, and sectioned by the Augusta University histology core. The tissues were probed using antibodies to PCNA (1:100; Cell Signaling, Danvers, MA, USA). Visualization of PCNA antibodies was carried out using the ImmunoCruz ABC kit (Santa Cruz Biotechnology, Dallas, TX, USA). At least 10 different regions of the colon containing approximately 8 crypts per region were counted for each mouse.
(In general: Flow cytometry measures light scatter and fluorescence of single cells or particles in a stream.)

The target of data set [4] is T1, human PDE5a (Homo sapiens, UniProt O76074).
T1 construct: purchased BPS Bioscience
Description: In vitro assay for PDE5 inhibitory activity (commercial kit). The format is biochemical. To be noted: mean of n = 3.

Data set [5] deals with mice. In words: Tolerability and plasma level with compound in drinking water for up to 8 days. The data set is classed as in vivo.
Data set [6] in a line: in vivo. To be noted: both, mouse, po.
The conditions of data set [7]: both, mouse, in vivo, po.
The nature of data set [8]: Tolerability and plasma level with compound in drinking water for up to 8 days. The format is in vivo. To be noted: male, mouse, plasma, oral, 9 mg/kg daily; mice, in drinking water for 8 days.
Data set [9] concerns mice. In words: Arterial blood pressure by telemetry, interaction with isosorbide mononitrate. Conditions: ISMN 300 mg/kg i.p. alone (oral vehicle), baseline around 100 mmHg. The format is in vivo. On the procedure:
Male C57BL/6J mice (n = 4) were implanted with a PA-C10 blood pressure transmitter in the right carotid artery (Data Sciences International, St. Paul, MN, USA), and after recovery from surgery, the data was recorded using the DSI PhysioTel system (Data Sciences International, St. Paul, MN, USA). For each experiment, the mice were randomly selected for treatment with ISMN mixed in diH20, and 0.1 mL was injected i.p. for a final dose of 300 mg/kg. […] The experiment was repeated until each treatment had been reproduced in 5 independent biological trials after which mice were euthanized.
The surgical procedures and implantable telemetry approach for measuring blood pressure in mice have been described in detail previously. In brief, all surgical instruments were autoclaved on a stainless-steel tray that was used as the sterile surface during surgery. The mouse is anesthetized in an isoflurane-inducing chamber. Anesthesia used a fitted nose cone connected to an isoflurane system running 2% in a stream of 100% oxygen mixed with room air. The incision area was shaved and prepped with betadine and rinsed with 70% ethanol. Anesthesia was assessed continuously during shaving and prepping for surgery, with appropriate adjustments. An approximately 10 mm incision was made in the ventral neck region over the trachea to expose the […]. […]

[10] abbreviates: 9 mg/kg in drinking water, up to 8 days.

Regarding `CCCc1nn(C)c2c(=O)[nH]c(-c3cc(S(=O)(=O)N4CCN(C(=O)CC(=O)O)CC4)ccc3OCC)nc12` [malonyl-sildenafil], the concentration for a half-maximal effect (EC50) (commonly the concentration that produces a half-maximal response) in data set [1] came to 12100 nM. In addition, in [1] (versus sildenafil), the “fold less potent than parent compound at increasing cGMP levels, based upon EC50” value stood at 18 fold. For the same molecule, the level in feces in data set [2] (oral 9 mg/kg) is on record as 90 µg/g. The molecule further had a level in feces in [2] (oral 36 mg/kg) of 244 µg/g. The level in plasma result in data set [2] (oral, doses up to 36 mg/kg, 1 h after administration) is listed as “did not result in detectable levels”. Besides, the excretion in feces result in data set [2] (single oral 9 mg/kg, 8 h after administration) is “continued to be excreted at high levels”. In data set [2] (single oral 9 mg/kg, any time other than 1 h during 24 h), the “level in plasma at other times of time course” value is “not detected”. Also, in data set [2] (single oral 9 mg/kg, at 1 h), the “plasma peak in time course” value is on record as 11 nM. In [3], the “Ki67+ cells, median” value was 7% and the “reduction of number of PCNA+ cells/crypt” value is given as “about 30%”. For the same molecule, in [4], half-maximal inhibition (IC50) was put at 6.5 nM. Besides, in data set [5] (setting [10]), the “body weight compared to sildenafil or water alone” value is “no difference” and the observed deleterious effects result was “no observed deleterious effects”. The “histological analysis of the colon mucosa” value in [5] (8 days in drinking water, H&E) is on record as “no obvious epithelial damage, edema or leukocyte infiltration”. The level in plasma result in data set [5] (in drinking water for 8 days) was “not detected”.

Turning to `CCCc1nn(C)c2c(=O)[nH]c(-c3cc(S(=O)(=O)N4CCN(C)CC4)ccc3OCC)nc12` [sildenafil, reference compound], the EC50 in [1] stood at 670 nM. The molecule further displayed a concentration at 1 h in data set [6] (9 mg/kg) of 250 nM. Also, in [6] (36 mg/kg), the concentration at 1 h stood at 3500 nM. Besides, in data set [3], the “Ki67+ cells, median” value came to 11% and the “reduction of number of PCNA+ cells/crypt” value is listed as “about 30%”. Moreover, in data set [7], the “time of peak in plasma” value lay in the range of 1 to 2 h. For the same molecule, in [8], the concentration at 8 days came to 3.3 nM.

`O=[N+]([O-])O[C@@H]1CO[C@H]2[C@@H]1OC[C@@H]2O` [ISMN, isosorbide mononitrate]: in data set [9], the “arterial blood pressure after drug” value came out at 126 mmHg.
